Tested on: human iPSC-derived astrocytes
Assay: Oxygen consumption (mitochondrial respiration) in human iPSC-derived astrocytes, Seahorse XF96
Format: cell-based
Conditions: hiPSC-derived astrocytes; NR 0.5 mM for 24 hours; ketone bodies BHB (0.5 mM or 2 mM) or BHP for 1 h in KRBH 1 mM glucose; uncoupled with FCCP 1 μM; FIG. 6
Experimental: Differentiated human iPSC astrocytes were obtained from Cellular Dynamics International (CDI, Madison, Wis., USA). The cells were thawed according to the manufacturer's instructions. iCell astrocytes were cultured in DMEM supplemented with 10% fetal calf serum and N2 complement. Oxygen consumption in human iPSC-derived astrocytes was measured in a Seahorse XF96 instrument (Seahorse Bioscience, North Billerica, Mass., USA). Astrocytes were seeded directly into Seahorse 96-well tissue culture plates (XF96 FluxPaks no. 102416-100; Seahorse Bioscience) at a density of 40,000 cells per well. Cells were incubated for 24 hours with 0.5 mM of Nicotinamide riboside chloride (NR) or fresh medium before experiment. Four days after seeding, the cells were washed twice in KRBH 1 mM glucose and incubated for 1 h with the ketone bodies BHB (racemic (D,L) BHB) or BHP (D BHP) at the concentration indicated. The cells were maintained at 37° C. during the experiment. Mitochondrial respiration rates were determined every 6 minutes. […] The oxygen consumption rate in hiPSC-derived astrocytes was measured as an indication of mitochondrial function, using a Seahorse instrument. Through addition of the uncoupling agent FCCP, uncoupled (=maximal) respiration was determined.

NC(=O)c1ccc[n+]([C@@H]2O[C@H](CO)[C@@H](O)[C@H]2O)c1 [NR, Nicotinamide riboside chloride]
maximal (uncoupled) respiration, oxygen consumption rate: Neither ketone bodies alone nor NR treatment significantly increases maximal respiration
